Where “and” joins values, the source holds several entries; their conditions need not be identical. Equal values may be shown once. Read-outs that look alike come from different tables or passages of the source.
Experiments:
human A2AAR [1] = biological target: T1, human A2AAR (Homo sapiens, UniProt P29274); assay: Radioligand binding assay at the A2AAR for adenine derivatives 1-23 (displacement of [3H]NECA, CHO cells)
T1 construct: expressed in transfected cells; host or cells: CHO cells
Procedure: (§1) Radioligand binding assays for compounds 25–36 were performed as previously described[61] using membrane preparations from Chinese hamster ovary (CHO) or human embryonic kidney (HEK)293 cells stably expressing the human A1, A2A or A3AR. The following radioligands: antagonist [^3H]DPCPX (0.5 nM); antagonist [^3H]ZM241385 (1.0 nM); and agonist [^125I]AB-MECA (0.2 nM) were used for A1, A2A, and A3ARs, respectively. Binding parameters were calculated using Prism 6 software (GraphPAD, San Diego, CA, USA). IC50 values obtained from competition curves were converted to Ki values using the Cheng-Prusoff equation. Data were expressed as mean ± standard error. The radioligand binding assays for compounds 18, 20, 21, and 23 were performed as previously described. Each Ki value was determined from at least three independent experiments.
Supplementary Table S1. Binding data for compounds 1-23. […]
aKi value from Lambertucci et al.1 bKi value from Volpini et al.2 cDisplacement of specific [3H]NECA binding at human A2AAR expressed in CHO cells measured in this work.
Data is expressed as geometric means with 95% confidence limits (n=3-6). […]

human A2AAR [2] = biological target: T1, human A2AAR; details: 95% confidence interval in brackets, ref Volpini et al. [23]; cited from earlier work
human A2AAR [3] = biological target: T1, human A2AAR; assay: Functional assay: inhibition of NECA-induced cAMP production (GloSensor) in CHO cells; format: cell-based; details: against 1 µM NECA, CHO cells expressing human A2AAR
Procedure: CHO cells, stably transfected with the human A2AAR and transiently with firefly luciferase biosensor, were grown adherently and maintained in Dulbecco’s Modified Eagles Medium with nutrient mixture F12 (DMEM/F12 with phenol red), supplemented with 10% FBS (Fetal Bovine Serum), 100 U/mL penicillin, 100 µg/mL streptomycin, 2.5µg/mL amphotericin, 1 mM Sodium pyruvate, and 0.1 mg/mL Geneticin (G418) at 37 °C, and aerated with 5% CO2: 95% O2. Cells were harvested in CO2 independent media and counted in a Neobauer chamber. The desiderate cell number was incubated in equilibration medium containing a 3% v/v GloSensor cAMP reagent stock solution, 10% FBS and 87% CO2 independent medium. After 2 hours of incubation cells were dispensed in wells of 384 well plate and when a steady-state basal signal was obtained, different concentrations of antagonists were added. After 10 min, 1 µM of 5′-N-ethylcarboxamidoadenosine (NECA), the reference agonist, was injected. Responses were expressed as percentage of the Maximal Relative Luminescence Units (RLU). Inhibition-response curves were fitted by a non-linear regression using a Prism 4.0 program (GraphPad Software, San Diego, CA, USA).

human A2AAR [4] = biological target: T1, human A2AAR; assay: Radioligand binding assay, antagonist [3H]ZM241385 (1.0 nM), membranes of CHO or HEK293 cells, compounds 25-36; details: for inhibition at 300 µM: read-out: % inhibition at 300 µM A2A (displacement of radioligand binding); for inhibition at 300 µM / Ki: [3H]ZM241385, mean ± standard error, n=3; for Ki: read-out: Ki A2A; for fold increase of affinity compared to compound 32: experimentally determined, A2AAR
Procedure: as §1
(§2) Supplementary Table S2. Experimental data for compounds 25-36. Radioligand binding
(§3) assays were performed using membranes of mammalian cells overexpressing one AR subtype.
(§4) aData are expressed as mean ± standard error resulting from three independent experiments.

human A1AR = biological target: T2, human A1AR (Homo sapiens, UniProt P30542); assay: Radioligand binding assay, antagonist [3H]DPCPX (0.5 nM), membranes of CHO or HEK293 cells; details: for inhibition at 300 µM: read-out: % inhibition at 300 µM A1
T2 construct: expressed in transfected cells; host or cells: CHO or HEK293 cells (membrane preparations)
T2 sequence (P30542 1-326): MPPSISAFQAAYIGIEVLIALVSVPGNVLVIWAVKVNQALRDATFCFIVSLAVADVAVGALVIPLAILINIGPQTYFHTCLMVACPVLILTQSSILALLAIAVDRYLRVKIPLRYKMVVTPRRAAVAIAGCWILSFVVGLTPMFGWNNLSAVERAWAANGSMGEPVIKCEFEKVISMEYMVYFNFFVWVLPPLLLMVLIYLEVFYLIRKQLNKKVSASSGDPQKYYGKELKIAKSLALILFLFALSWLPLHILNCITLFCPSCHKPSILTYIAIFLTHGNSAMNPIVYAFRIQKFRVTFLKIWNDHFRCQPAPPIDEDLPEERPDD
Procedure: Binding parameters were calculated using Prism 6 software (GraphPAD, San Diego, CA, USA). IC50 values obtained from competition curves were converted to Ki values using the Cheng-Prusoff equation. Data were expressed as mean ± standard error. […] Each Ki value was determined from at least three independent experiments.
Supplementary Table S2. […] Radioligand binding
as §3

human A3AR = biological target: T3, human A3AR (Homo sapiens, UniProt P0DMS8); assay: Radioligand binding assay, agonist [125I]AB-MECA (0.2 nM), membranes of CHO or HEK293 cells; details: for inhibition at 300 µM: read-out: % inhibition at 300 µM A3, 300 µM, mean ± standard error, n=3; for Ki: mean ± standard error, n=3, read-out: Ki A3
T3 construct: expressed in transfected cells; host or cells: CHO or HEK293 cells (membrane preparations)
T3 sequence (P0DMS8 1-318): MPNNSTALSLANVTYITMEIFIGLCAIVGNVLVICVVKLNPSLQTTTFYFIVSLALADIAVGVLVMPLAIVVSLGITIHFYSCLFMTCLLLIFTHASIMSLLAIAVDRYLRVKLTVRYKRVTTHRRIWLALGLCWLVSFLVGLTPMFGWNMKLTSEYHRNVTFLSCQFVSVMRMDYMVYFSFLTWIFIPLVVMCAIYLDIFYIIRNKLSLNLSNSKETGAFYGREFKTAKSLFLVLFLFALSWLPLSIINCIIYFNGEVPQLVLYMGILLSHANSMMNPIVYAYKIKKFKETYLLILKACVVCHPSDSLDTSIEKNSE
Procedure: as §1, §2, §3, §4

[5] = [3H]DPCPX, mean ± standard error, n=3
[6] = [3H]DPCPX, mean ± standard error, n=3, read-out: Ki A1

T1 sequence (P29274 whole entry): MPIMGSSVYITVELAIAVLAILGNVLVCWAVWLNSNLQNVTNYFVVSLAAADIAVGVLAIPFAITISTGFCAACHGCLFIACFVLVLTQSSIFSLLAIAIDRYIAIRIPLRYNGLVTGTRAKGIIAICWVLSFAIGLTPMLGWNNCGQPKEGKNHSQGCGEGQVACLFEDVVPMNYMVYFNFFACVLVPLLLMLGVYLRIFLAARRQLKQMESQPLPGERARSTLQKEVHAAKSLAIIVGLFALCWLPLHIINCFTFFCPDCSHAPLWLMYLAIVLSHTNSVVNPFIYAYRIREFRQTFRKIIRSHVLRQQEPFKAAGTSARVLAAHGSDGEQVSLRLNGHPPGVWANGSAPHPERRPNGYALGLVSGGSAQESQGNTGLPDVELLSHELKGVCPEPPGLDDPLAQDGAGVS

## CCn1c(O)nc2c(N)ncnc21 [Compound 20]
Human A2AAR [1]; displacement of specific [3H]NECA binding at human A2AAR expressed in CHO cells, measured in this work
  Ki: 1.14 ± 0.29 µM

## CCOc1nc2c(N)ncnc2n1CC [Compound 22]
Human A2AAR [2]
  Ki: 0.046 µM
Human A2AAR [3]
  inhibition of A2AAR mediated cAMP production: close to completely inhibit the agonist effect of 1 µM NECA

## CCn1c(OC(C)C)nc2c(N)ncnc21 [Compound 23]
Human A2AAR [2]
  Ki: > 100 µM
Human A2AAR [3]
  inhibition of A2AAR mediated cAMP production: close to completely inhibit the agonist effect of 1 µM NECA
Human A2AAR [1]; compound retested in a radioligand binding assay at the A2AAR, this work
  Ki: 0.095 µM
Human A2AAR [1]; from published affinity of 23
  fold loss of binding affinity relative to compound 21: > 1000 fold

## Nc1ncnc2ncnn12 [Compound 25, [1,2,4]triazolo[1,5-a][1,3,5]triazin-7-amine]
Human A2AAR [4]
  inhibition at 300 µM: 34%
Human A1AR; [5]
  inhibition at 300 µM: 27 ± 4%
Human A3AR
  inhibition at 300 µM: 39 ± 2%

## Cc1nc2ncnc(N)n2n1 [Compound 26]
Human A2AAR [4]
  Ki: 78.5 µM
Human A1AR; [5]
  inhibition at 300 µM: 44 ± 4%
Human A3AR
  inhibition at 300 µM: 50 ± 4%

## CSc1nc2ncnc(N)n2n1 [Compound 27]
Human A2AAR [4]
  Ki: 20 µM
Human A1AR
  Ki: 97.3 ± 3.5 µM
Human A3AR
  Ki: 119 ± 42 µM

## Nc1cccn2ncnc12 [Compound 28, [1,2,4]triazolo[1,5-a]pyridin-8-amine]
Human A2AAR [4]
  inhibition at 300 µM: 17%
Human A1AR; [5]
  inhibition at 300 µM: 22 ± 6%
Human A3AR
  Ki: 153 ± 31 µM

## Cc1nc2c(N)cccn2n1 [Compound 29]
Human A2AAR [4]
  inhibition at 300 µM: 31%
Human A1AR; [5]
  inhibition at 300 µM: 38 ± 6%
Human A3AR
  inhibition at 300 µM: 44 ± 4%

## CCc1nc2c(N)cccn2n1 [Compound 30]
Human A2AAR [4]
  inhibition at 300 µM: 49%
Human A1AR
  Ki: 97.2 ± 22.5 µM
Human A3AR
  Ki: 110 ± 17 µM

## CC(C)c1nc2c(N)cccn2n1 [Compound 31]
Human A2AAR [4]
  Ki: 223 µM
Human A1AR
  Ki: 50.1 ± 22.6 µM
Human A3AR
  Ki: 102 ± 32 µM

## CC(=O)Nc1nc2ccccc2s1 [Compound 32, N-(benzo[d]thiazol-2-yl)acetamide]
Human A2AAR [4]
  Ki: 79.1 µM and 79 µM
Human A1AR; [6]
  Ki: 11.2 ± 2.4 µM
Human A3AR
  Ki: 0.81 ± 0.17 µM

## CC(=O)Nc1nc2c(C)cccc2s1 [Compound 33]
Human A2AAR [4]
  Ki: 10.7 ± 2.3 µM
  fold increase of affinity compared to compound 32: 7 fold
Human A1AR; [6]
  Ki: 17 ± 1.2 µM
Human A3AR
  Ki: 2.3 ± 0.5 µM

## CC(=O)Nc1nc2cc(C)ccc2s1 [Compound 34]
Human A2AAR [4]
  Ki: 11.6 ± 1.2 µM
  fold increase of affinity compared to compound 32: 7 fold
Human A1AR; [6]
  Ki: 8.4 ± 0.9 µM
Human A3AR
  Ki: 1.1 ± 0.2 µM

## CC(=O)Nc1nc2ccc(C)cc2s1 [Compound 35]
Human A2AAR [4]
  Ki: 48.6 ± 2.6 µM
  fold increase of affinity compared to compound 32: two-fold increase of affinity
Human A1AR; [6]
  Ki: 17.8 ± 1.7 µM
Human A3AR
  Ki: 2.9 ± 0.4 µM

## COc1cccc2sc(NC(C)=O)nc12 [Compound 36]
Human A2AAR [4]
  Ki: 1.8 ± 0.05 µM
  fold increase of affinity compared to compound 32: 44 fold
Human A2AAR [4]; corresponding to the 44-fold increase
  experimental increase of affinity compared to compound 32, as free energy: 2.3 kcal/mol
Human A1AR; [6]
  Ki: 7.8 ± 0.5 µM
Human A3AR
  Ki: 1 ± 0.2 µM
